In this assay the target is T1, CISD3 Gene Product (Miner2) (Homo sapiens, UniProt P0C7P0).
T1 sequence (P0C7P0 15-127): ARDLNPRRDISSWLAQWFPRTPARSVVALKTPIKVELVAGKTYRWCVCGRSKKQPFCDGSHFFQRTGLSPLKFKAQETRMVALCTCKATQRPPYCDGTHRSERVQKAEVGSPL
As to the kind of experiment: Stability of Fe-S cluster binding of purified NEET protein (absorbance 458 nm), Miner2. The assay is classed as biochemical. As to the method: The modulator effect on the NEET proteins encoded by human CISD1, CISD2, and CISD3 genes by the compounds of the invention has been tested and is reported below. Particularly, the biochemical function of the NEET proteins is measured by the stability of Fe—S cluster binding of the purified NEET proteins.
The Fe—S cluster binding capacity of NEET proteins is known to be coordinated by four amino-acids in a stretch of 16 (three Cysteine and one Histidine). As the lability of the Fe—S cluster of NEET proteins is sensitive to the environment, cluster stability measurements are one of the measures of interactions of NEET proteins with small molecules and compounds. NEET protein/2Fe-2S cluster stability can be assessed by monitoring the decay in absorbance of its characteristic 458-nm peak (characteristic of the oxidized 2Fe-2S cluster) over time. Each NEET protein (mitoNEET, NAF-1 and Miner 2) was tested for its Fe—S binding in the absence or presence of a compound according to the invention (see table 3 below). […]
At pH 6, all the three NEET proteins (mitoNEET, NAF-1 and Miner 2) have a characteristic rate of loss of the bound Fe—S cluster that can be measured by the decrease of absorbance at wavelength 458 nm over time, using a spectrophotometer. […]
A reaction mix containing DMSO diluted in the Bis-Tris Buffer with or without a compound of the invention was prepared. […] The absorbance at wavelength 458 nm was taken at 5 minutes intervals at 37° C. with a spectrofluorimeter. […]
In addition to time monitoring, residual bound Fe—S cluster to NEET protein was measured at the final point of the spectrometry assay for each Test sample and compared to the Control sample data (in parenthesis table 3). This residual binding is measured by the differential percentage between the absorbance 458 nm at time zero and the absorbance 458 nm at the end of the experiment (i.e. respectively 500 or 180 minutes as described hereabove), showing the percentage of NEET protein still able to bind a Fe—S cluster. […]

As to `O=C(Nc1scc(C2CCc3ccccc3C2)c1C(=O)O)c1ccccc1` (stereo not drawn) [#16], under “CISD3 Gene Product, end of experiment 180 minutes, compound 60 μM, pH 6, vehicle control 11%”, the “Residual cluster bound at end of experiment (Percentage Absorbance 458 nm at time zero)” value was 11% (11%). For the same compound, the “Time (in minutes) to achieve 50% loss of bound cluster (Absorbance 458 nm)” value (Miner2 20 μM, compound 60 μM, pH 6, 37° C., vehicle control 60) was 35 (60) minutes. Besides, under “Miner2, destabiliser = time to 50% cluster loss decreased by more than 25% vs control”, the “Stabiliser or destabiliser of NEET protein/Fe-S cluster binding” value was “destabilisers”.

(Values after patent US11767316B2, “Non-fused thiophene derivatives and their uses” (ENYO PHARMA, priority 2018, dated 2023).)
